Results published in a melting point compilation (Tetko et al.; mined from patent text by program, amines drawn as free bases though some values may be those of a salt).

melting point [°C] | Structure (SMILES)
135 to 137 | CC(=O)C(C(=O)Nc1ccccc1)C(C)C (stereo unspecified)
127 | CC(=O)N1CCN(CCOc2ccc(C3CCN(C4=Nn5c(nnc5C(F)(F)F)CC4)CC3)cc2)CC1
258 to 261 | Cc1csc2[nH]c(=O)nc(-c3ccccc3F)c12
168 to 170 | Cc1nnc(C=Cc2ccccc2OCC(O)CCl)s1 (stereo unspecified)
215 to 216 | CSc1nc(=O)n(Cc2ccccc2)c2nc[nH]c12
108 to 112 | CCCCCS(=O)(=O)NC(=O)CCc1cc(OCCOC)nn1Cc1ccc(Cl)cc1Cl
241 | CCOC(=O)c1ccc2c(C=C[N+](=O)[O-])c[nH]c2c1
130 | COc1ccc(-c2cnc3nccn3c2)cc1OC1CC2CCC1C2 (stereo unspecified)
181 to 183 | CCCOc1ccccc1C(=O)Nc1cnccc1C(N)=O
110 to 111 | COc1cc(OC)c(C(C)=O)c(O)c1CC=C(C)C
125 to 128 | CCOC(=O)c1cnc2c(SC(=O)N(C)C)nccn2c1=O
130 to 135 | Nc1cc(Br)cnc1CCCCNc1nccc(=O)[nH]1
118 to 120 | COc1cc2cc(CO)c(CO)c(-c3ccncc3)c2cc1OC
72 | CCCCc1ccc(-c2nc(F)c(-c3ccc(OC)cc3)o2)cc1
66 to 68 | C=CCOc1cc(NC(=O)OCC)c(F)cc1Br
110 to 112 | CCOC(=O)c1c(N2CCN(c3ccccc3)CC2)c2ccc(C)nc2n(CC)c1=O
106 to 109 | COc1cc(C)c(C(=O)c2c(Cl)cnc(Cl)c2C(F)(F)F)c(OC)c1OC

melting point [°C] | Structure (SMILES)
192 to 194 | Cc1cccc(Nc2cc(Nc3cccc(OCC(N)=O)c3)ncn2)c1
135 to 136 | Cc1nc(-c2ccc(C(F)(F)F)cc2)oc1CSc1ccc(CC(=O)O)cc1
136 | CCc1nnc(-c2ccc(OC)cc2)n1-c1ccc(C(=O)N(C)C)cc1
119 to 120 | COCNC(=O)c1c(-c2ccc(Cl)cc2)nsc1-c1ccccc1
68 to 69 | CSCCN(C)C(=O)N(C)c1cnc(-c2cncc(F)c2)s1
86 to 90 | COc1cc(Nc2nccc(-c3ccc(NCCCO)cc3)n2)cc(OC)c1OC
223 to 226 | CCn1nc(C(F)(F)F)cc1NC(=O)c1c(C)cccc1C(=O)NC(C)C
168 to 170 | COc1ccc(C(=O)N2CCN(c3ccc(N)c(C=CC(=O)O)c3)CC2)cc1OC
154 to 155 | CN(C)Cc1cccc(OCCCNc2nc3ccccc3s2)c1
83 to 84 | O=C(c1ccc(F)cc1)c1ccc([N+](=O)[O-])cc1Cl
189 to 190 | N#Cc1ccc(NC(=O)c2cc(-c3ccc(F)cc3F)ccc2O)cc1
129 to 130 | Cc1c(NC(=O)c2ccc(-c3ccccc3)c(F)c2)ccc2cc(CN3CCCCCC3)cnc12
177 to 180 | Cc1nn(C)cc1C(=O)Nc1ccccc1-c1ccc(F)c(Cl)c1
144 to 145 | COC(=O)c1ccc2c(c1)C(=O)CC(C)(COc1ccc([N+](=O)[O-])cc1)O2 (stereo unspecified)
278 | O=C(O)c1cc2c(-c3cccs3)nccc2[nH]c1=O
99 to 100 | O=C(O)CCCCCCCc1cncc2ccccc12

More lines, now with the values behind:

Structure (SMILES) | melting point [°C]
Brc1cc(Br)c(COCc2cc(Br)c(Br)cc2Br)cc1Br | 162 to 164
CCC(C)COC(=O)C1(OC(=O)c2ccc(O)cc2)C=CC=CC1 (stereo unspecified) | 90.8 to 92.6
COc1ccc(C#Cc2ccccc2)cc1 | 57 to 58
Cn1nnn(-c2c(Cl)ccc(C(=O)O)c2Cl)c1=O | 221 to 225
[N-]=[N+]=NC(=O)c1ccc2c(c1)C(=O)OC2=O | 100 to 103
COc1ccc(-c2cc3cc(F)c(F)cc3[nH]2)cc1NCc1cccc(C#N)c1 | 154 to 155
O=C(Oc1ccc([N+](=O)[O-])cc1)C(=O)N1CCOC1=O | 159
CC(C)(C)c1cc(CCc2ccccc2NC(=O)NC2CCN(Cc3ccc(C(F)(F)F)cc3C(F)(F)F)CC2)cc(C(C)(C)C)c1O | 156 to 157
O=c1oc(-c2ccccc2)cc(O)c1C(CCCSc1ccccc1)Sc1ccccc1 (stereo unspecified) | 75 to 77
Cc1cc(C2(c3ccc(OC(F)F)cc3)N=C(N)N(C)C2=O)ccc1F (stereo unspecified) | 70
CCO[PH](=O)CN(C)c1cc(Oc2ccc(C(F)(F)F)cc2Cl)ccc1[N+](=O)[O-] (stereo unspecified) | 118 to 120
CN1C(=O)[C@H](NC(=O)C(c2ccccc2)c2ccccc2)N=C(c2ccccc2)c2ccccc21 | 200 to 201
COCc1cc([N+](=O)[O-])c(Cl)cc1C#N | 57 to 59
Cc1ccc2c(NCc3ccc(NC(=O)C4CCN(Cc5ccccc5)CC4)cc3)nc(N3CCCCCC3)nc2c1 | 66
Cn1ccc2c1CCn1ccnc1C2=C1CCN(C2CCN(C(=O)c3cc(C(F)(F)F)cc(C(F)(F)F)c3)C(Cc3ccccc3)C2)CC1 (stereo unspecified) | 133
O=[N+]([O-])c1c(Cl)cccc1CS(=O)(=O)c1ccccc1 | 141 to 142
CS(=O)(=O)N[C@H]1C[C@H](C(=O)O)Nc2cc(Cl)cc(Cl)c21 (relative stereo) | 194 to 195
Nc1ccc(S(=O)(=O)N2CCN(c3ccccn3)CC2)cc1 | 208 to 210
CCCCC(=O)N(Cc1ccc(-c2ccccc2-c2nnn[nH]2)cc1)C(C(=O)OCc1ccccc1)C(C)C (stereo unspecified) | 106 to 108

Structure (SMILES) | melting point [°C]
Cc1sc(C)c(Cc2nc3c(F)c(F)cc(F)c3s2)c1CC#N | 145 to 146
CCCCCCC(=O)OCCOC(=O)NC1(C(=O)O)CC1 | 113
CCCCc1nc(Cl)c(C(=O)O)n1Cc1ccc2oc(-c3ccccc3C#N)c(OC)c2c1 | 158 to 160
O=C(Nc1ccccc1)N1CCN=C1CSc1ccccc1 | 117 to 119
O=C(O)COc1c2c3c(ccnc3c3ccccc13)CCC2 | 228
O=C(c1ccccc1)c1cn2c3ccccc3c3cccc(c1=O)c32 | 158 to 160
NC1=CC(=O)C(N)=C(CCCCCC2=C(N)C(=O)C=C(N)C2=O)C1=O | > 250
CCC12CCC3C4CCC(=O)C=C4CC(C)C3C1CCC2O (stereo unspecified) | 152 to 154
CCCCCCCCOC(=O)NCCC(=O)O | 70 to 72
O=C1NCC=NN1c1ccc(Cc2ccc(Cl)cc2)c(Cl)c1 | 196 to 197
CC(=O)c1c(N=Cc2ccccc2)c(-c2ccccc2)n(Cc2ccc(Cl)cc2)c1C | 136 to 137
COc1cc2c(cc1OC)-c1cc(=O)[nH]c(=O)n1CC2 | 323 to 325
O=C1CN(CCCBr)Oc2ccccc21 | 90 to 92
CCN(CC)CC1CCCCN1C(=O)c1ccc(-c2[nH]nc3c2C(=O)c2c(NC(=O)NN4CCOCC4)cccc2-3)s1 (stereo unspecified) | 210 to 212
O=c1[nH]cnc2c1nc(CC1CCN(Cc3ccccc3)CC1)n2Cc1ccc(F)cc1 | 197
O=C(O)C1Cc2cc(O)c(O)cc2CN1 (stereo unspecified) | 288
N#CC(C#N)=C1N(CCN2CCCCC2)CCN1CCN1CCCCC1 | 104 to 106
Cc1[nH]cnc1C(c1ccccc1)c1ccccc1 | 198 to 204
CCOC(=O)CC(C)(C)CC(=O)C1CC2=C(CC(C)(C)CC2)N(C2CCCCC2)C1 (stereo unspecified) | 44 to 46
